# Assay results from patent US6077872A (priority 1998, dated 2000).
# Where two headings read alike, the source gives them in different places.
# How the values were obtained:
# ovariectomized rats = details: for serum Ca / serum P / serum Tr-ACP (in Bessey-Loury unit) / serum AKP (in Bessey-Loury unit): 75 days; for serum Ca: model-control 1.40 ± 0.72; for serum P: model-control 1.91 ± 0.34; for serum Tr-ACP (in Bessey-Loury unit): model-control 8.4 ± 2.8; for serum AKP (in Bessey-Loury unit): model-control 50.3 ± 15
# Procedure: (3) Pure synthetic low-calcium diet was formulated by mixing 40% fine wheat flour, 40% maize flour, 10% tyroprotein, 5% peanut oil, 3% AIN-76 mixed salts, 1% AIN-76 mixed vitamins, 1% cellulose and 0.3% DL-methionine, in which the calcium salt in AIN-76 mixed salts was replaced by glucose, and this preparation contains 64 mg calcium/100 g.
# The test period was 75 days.
# (§1) Serum Ca, P and AKP were measured by a 4010 Automatic Biochemical Analyzer. Serum Ca was determined by calorimetric method using methylthymol blue. Serum P was determined by Mono-Reagent Method. Alkaline phosphatase was determined by method of disodium p-nitrophenylphosphonate (AKP) The tartaric-resistant acidic phosphatase (Tr-ACP) mineral was determined by Piedra procedure. All above reagent-box were available from the Clinical Chemicals Sub-plant of Beijing Chemical Plant.
# rickets-mice = test: Preventing rickets in younger mice: body weight, dry weight, ash weight and total calcium content of femur; type: in vivo, mice of Kunming species; details: for dry weight of femur: model 0.099 ± 0.014; for total calcium content: model 24.81 ± 4.36; for ash weight: model 46.62 ± 9.38
# Procedure: The mice were bred for 60 days under conditions of avoiding light around-the-clock, at a temperature of 20-25° C. and a relative humility of 40-60% while the normal-control group mice were fed ordinary diet and water and were placed in non-dark room.
# The low-calcium diet used in this test was the same as that in Test II but VD in the vitamin mixture was replaced by glucose.
# Some weanling mice were placed in dark room and fed VD -deficient low-calcium diet and drunk de-ionized water for 60 days, thus a ricket model of baby mice was prepared. While other weanling mice were placed in non-dark room and fed ordinary diet and drunk tap water for 60 days, these mice were established as normal-control group.
# preschool children = details: for children having normal BMDs: groups I and II
# Procedure: Seventy 3-6 years old healthy children whose bone mineral density were medium-lower at a central kindergarten in the suburban county of Beijing were selected as subjects, wherein there are 13 boys and 57 girls. All were healthy children who didn't have any metabolic diseases, liver or kidney diseases, bone wounds and abnormal diseases.
# Double blind method was employed during the observation. Every person was administered calcium preparation or placebo twice a day in a dosage of 1 bag each time. […] Group IV, established as blank-control group, was administered placebo which didn't contain calcium. All the above oral preparations were provided by Beijing Juneng Asian-Pacific Life Science Research Center.
# (1) Bone mineral density was measured before the test and 1.5 months and 3 months later after the administration of Ca supplements.
# The bone mineral density of radius in non-preferred hand was measured at the 1/3 point near the farther-end by a Model BMD400 Single-Photon absorptiometry produced conjointly by Institute of Atomic Energy, Ministry of Nuclear Industry, China and Institute of Broadcasting, Beijing, to obtain mean mineral bone density (BMD, g/cm^2). Each point was scanned twice with a scanning speed of 0.5 mm/sec.
# All data was analyzed with a SAS statistical software package.
# [1] = dog, in vivo
# in vivo = details: dog, po, 200 mg/kg
# rickets-babies = details: for craniomalacia, babies with symptom after the beginning of test: before test 3 (threonate), 4 (carbonate); for pillow-bald, babies with symptom after the beginning of test: before test 9 (threonate), 9 (carbonate); for night-sweat, babies with symptom after the beginning of test: before test 12 (threonate), 13 (carbonate)
# Procedure: Fourty rickets-babies at the age of 3-10 months were randomly divided into 2 groups of 20 babies each. […] Test group II, namely the calcium carbonate group, were administered orally calcium carbonate twice a day in a dosage of one bag each time. Each bag of the two kind of calcium preparations contained the same amount of element calcium, namely 150 mg element calcium.
# (1) Clinic symptoms mainly included the normal symptoms of rickets-babies such as night-sweat, pillow-bald, craniomalacia, etc.
# [2] = system: castrated male rats with osteoporosis; details: for serum Ca: model 1.80 ± 0.37; for serum P: model 2.03 ± 0.48; for AKP level in serum (in Bessey-Loury unit): model 96.7 ± 26.4
# Procedure: as §1
# The pure synthetic low-calcium diet and apparatus used in this test were the same as in test II.
smiles,measurement,setting,value
O=C(O)[C@H](O)[C@@H](O)CO [calcium L-threonate],serum Ca,ovariectomized rats; 100 mg element calcium/kg/d,1.60 ± 0.75 mmol/L
same,serum P,ovariectomized rats; 100 mg element calcium/kg/d,2.08 ± 0.66 mmol/L
same,serum Tr-ACP (in Bessey-Loury unit),ovariectomized rats; 100 mg element calcium/kg/d,8.8 ± 1.8 U/L
same,serum AKP (in Bessey-Loury unit),ovariectomized rats; 100 mg element calcium/kg/d,48.7 ± 8.0 U/L
same,serum Ca,ovariectomized rats; 200 mg element calcium/kg/d,2.35 ± 0.35 mmol/L
same,serum P,ovariectomized rats; 200 mg element calcium/kg/d,1.87 ± 0.58 mmol/L
same,serum Tr-ACP (in Bessey-Loury unit),ovariectomized rats; 200 mg element calcium/kg/d,7.9 ± 2.4 U/L
same,serum AKP (in Bessey-Loury unit),ovariectomized rats; 200 mg element calcium/kg/d,41.4 ± 14 U/L
same,serum Ca,ovariectomized rats; 300 mg element calcium/kg/d,2.30 ± 0.75 mmol/L
same,serum P,ovariectomized rats; 300 mg element calcium/kg/d,1.88 ± 0.58 mmol/L
same,serum Tr-ACP (in Bessey-Loury unit),ovariectomized rats; 300 mg element calcium/kg/d,7.2 ± 2.1 U/L
same,serum AKP (in Bessey-Loury unit),ovariectomized rats; 300 mg element calcium/kg/d,38.2 ± 10 U/L
same,AKP and Tr-ACP effect (in words),ovariectomized rats; chronic feeding,might decrease the AKP and Tr-ACP levels in serum
same,serum Ca effect (in words),ovariectomized rats; long-time feeding,markedly raise the serum calcium level
same,blood P effect (in words),"ovariectomized rats; rat, in vivo",no evidence
same,dry weight of femur,rickets-mice; 200 mg calcium element,0.121 ± 0.010 g
same,total calcium content,rickets-mice; 200 mg calcium element,36.23 mg
same,ash weight,rickets-mice; 200 mg calcium element,69.44 ± 6.62 mg
same,dry weight of femur,rickets-mice; 300 mg calcium element,0.131 ± 0.013 g
same,total calcium content,rickets-mice; 300 mg calcium element,38.90 ± 13.78 mg
same,ash weight,rickets-mice; 300 mg calcium element,74.73 ± 12.31 mg
same,Ca deposited in femur versus calcium gluconate (in words),rickets-mice; P<0.05,much higher than that of calcium gluconate
same,"dry femur weight, ash weight and total calcium content (in words)",rickets-mice; high and low dosage,markedly higher than those of the model group and were approximate to those of the normal-control group
same,bone mineral density,"preschool children; 2 bags/day of 150 mg element calcium, 1.5 month, before test 0.379 (threonate), 0.369 (carbonate)",0.424 ± 0.038 g/cm^2
same,extent of BMDs' increase,"preschool children; 2 bags/day of 150 mg element calcium, 1.5 months",11.87%
same,bone mineral density,"preschool children; 2 bags/day of 150 mg element calcium, 3 month, before test 0.379 (threonate), 0.369 (carbonate)",0.467 ± 0.027 g/cm^2
same,bone mineral density,"preschool children; 2 bags/day of 200 mg element calcium, 1.5 month, before test 0.362 ± 0.026",0.414 ± 0.027 g/cm^2
same,extent of BMDs' increase,"preschool children; 2 bags/day of 200 mg element calcium, 1.5 months",14.36%
same,bone mineral density,"preschool children; 2 bags/day of 200 mg element calcium, 3 month, before test 0.362 ± 0.026",0.460 ± 0.020 g/cm^2
same,extent of BMDs' increase,"preschool children; 2 bags/day of 200 mg element calcium, 3 months",25.41%
same,fraction of children whose BMD reached the normal level,preschool children; after 3 months,about 2/3
same,children having normal BMDs,preschool children; 1.5 months,about 12%
same,children having normal BMDs,preschool children; 3 months,~72%
same,kinetic change of serum levels and pharmaceutical dynamic parameters (in words),[1],consistent with those of rats
same,Tmax,in vivo,1.21 h
same,concentration at 0.5 h,in vivo,23100 ± 2680 ng/mL
same,concentration at 1 h,in vivo,35900 ± 4410 ng/mL
same,concentration at 2 h,in vivo,74040 ± 500 ng/mL
same,concentration at 3 h,in vivo,46000 ng/mL
same,concentration at 4 h,in vivo,17200 ng/mL
same,concentration at 6 h,in vivo,9990 ng/mL
same,concentration at 8 h,in vivo,4660 ng/mL
same,concentration at 12 h,in vivo,2800 ng/mL
same,concentration at 16 h,in vivo,4300 ng/mL
same,concentration at 24 h,in vivo,3990 ng/mL
same,half-life,in vivo,3.57 h
same,therapeutic effect on baby rickets (in words),rickets-babies; 300 mg element calcium,significantly superior to that of calcium carbonate
same,total symptom improvement,rickets-babies; four weeks,100%
same,"craniomalacia, babies with symptom after the beginning of test",rickets-babies; four weeks,0
same,"pillow-bald, babies with symptom after the beginning of test",rickets-babies; four weeks,0
same,"night-sweat, babies with symptom after the beginning of test",rickets-babies; four weeks,0
same,total symptom improvement,rickets-babies; two weeks,62.5%
same,rickets-babies free of symptoms,rickets-babies; two weeks of administration (concluding text),62%
same,"craniomalacia, babies with symptom after the beginning of test",rickets-babies; two weeks,2
same,"pillow-bald, babies with symptom after the beginning of test",rickets-babies; two weeks,7
same,"night-sweat, babies with symptom after the beginning of test",rickets-babies; two weeks,0
same,serum Ca,[2]; 100 mg element calcium/kg/d,1.97 ± 0.52 mmol/L
same,serum P,[2]; 100 mg element calcium/kg/d,1.87 ± 0.39 mmol/L
same,AKP level in serum (in Bessey-Loury unit),[2]; 100 mg element calcium/kg/d,88.3 ± 13.7 U/L
same,serum Ca,[2]; 200 mg element calcium/kg/d,2.20 ± 0.60 mmol/L
same,serum P,[2]; 200 mg element calcium/kg/d,1.78 ± 0.55 mmol/L
same,AKP level in serum (in Bessey-Loury unit),[2]; 200 mg element calcium/kg/d,59.2 ± 12.0 U/L
same,serum Ca,[2]; 300 mg element calcium/kg/d,2.17 ± 0.62 mmol/L
same,serum P,[2]; 300 mg element calcium/kg/d,1.48 ± 0.55 mmol/L
same,AKP level in serum (in Bessey-Loury unit),[2]; 300 mg element calcium/kg/d,56.1 ± 6.2 U/L
same,serum calcium effect (in words),"[2]; rat, in vivo",significantly higher than that of model group
